Legend:
[1] = test system: hypoxic human umbillical vein ECs; test: vWF release from hypoxic HUVECs, NO/cGMP pathway; assay type: cell-based; conditions: hypoxia pO2<20 Torr 4 hours; SIN-1 0.1 mM, 8-Bromo-cGMP 10 nM
Description: (§1) Hypoxia or free radicals induce P-selectin (PS) translocation to the endothelial cell (EC) surface, where it participates in neutrophil (PMN) adhesion during reperfusion. To explore a mechanism whereby nitrovasodilators may attenuate postischemic leukosequestration, we tested whether stimulating the NO/cGMP pathway could attenuate surface PS expression in hypoxic human umbillical vein ECs. […] Under similar conditions, addition of the NO donor 3-morpholino sydnonimine (SIN-1, 0.1 mM) or the cGMP analog 8-Bromo-cGMP (cGMP, 10 nM) caused a reduction in vWF release; Control vWF, 11±0.4 mU/mL; SIN-1, 9.1±0.3 mU/mL; cGMP, 9.7±0.2 mU/mL; p<0.005 for both SIN-1 or cGMP vs Control.

P-selectin [2] = test: Surface P-selectin expression on hypoxic HUVECs (radiolabeled anti-PS antibody binding); assay type: cell-based, human
Description: as §1

hypoxic HUVECs = test: Immunofluorescent adherence assay, HL60 binding to hypoxic HUVECs; assay type: cell-based, human
Description: as §1

[3] = test system: intracellular calcium concentration [Cai]; test: Intracellular calcium by fura-2 fluorescence in hypoxic ECs; assay type: cell-based, human
Description: as §1

Human umbilical vein ECs = test: vWF release from hypoxic endothelial cells (ELISA); assay type: cell-based; conditions: cycloheximide 10 μg/ml added at start of hypoxic period, 4 hours of hypoxia
Description: Endothelial cell culture and exposure of cells to H or H/R. Human umbilical vein ECs were prepared from umbilical cords and grown in culture by the method of Jaffe (16) as modified by Thornton (17). Experiments utilized confluent ECs (passages 1-4) grown in Medium 199 supplemented with fetal bovine serum (15%; Gemini, Calabasas, Calif.), human serum (5%; Gemini), endothelial growth supplement (Sigma, St. Louis, Mo.), heparin (90 μg/ml; Sigma) and antibiotics, as described (17). When ECs achieved confluence, experiments were performed by placing cultures in an environmental chamber (Coy Laboratory Products, Ann Arbor, Mich.) which provided a controlled temperature (37° C.) and atmosphere with the indicated amount of oxygen, carbon dioxide (5%) and the balance made up of nitrogen. Use of this chamber for cell culture experiments has been described previously (15,18). During exposure of ECs to hypoxia (for a maximum of 16 hours), the oxygen tension in the culture medium was 14-18 torr and there was no change in the medium pH. Reoxygenation was performed by placing ECs in an ambient atmosphere containing carbon dioxide (5%) at 37° C.
Measurement of Weibel-Palade body exocytosis: ECs were plated into 24 well plates, rinsed 3 times with Hank's balanced salt solution, and then exposed to hypoxia or to normoxia for the indicated durations. For experiments in which vWF was measured, cells were maintained in serum-free medium. All other EC experiments were performed in the EC growth medium described above. For measurement of vWF, 200 μL aliquots of culture supernatant was removed at the indicated times, and a commercially available ELISA (American Diagnostica, Greenwich, Conn.), based on a polyclonal goat anti-human vWF antibody, was performed on duplicate specimens, with a standard curve generated using purified human vWF antigen supplied by the same vendor. EC P-selectin expression was determined by measuring the specific binding of a murine monoclonal anti-human P-selectin antibody (WAPS 12.2 clone, Endogen, Cambridge, Mass.; this is an IgGl which recognizes a calcium sensitive epitope and blocks P-selectin dependent neutrophil adhesion. Antibody was radiolabelled with ^125I by the lactoperoxidase method (19) using Enzymobeads (Bio-Rad, Hercules, Calif.), stored at 4° C. and used within one week of labelling. Binding assays were performed on HUVECs plated on 96 well plates, in which fresh M199 with 0.1% bovine serum albumin (Sigma, St. Louis, Mo.) was added immediately prior to each experiment. Cells were placed in a humidified environment at 37° C., and exposed to normoxia or H (in the presence or absence of 50 μM probucol, as indicated, Sigma) for the indicated durations. Cell monolayers were fixed for 15 min. with 1% paraformaldehyde^10 (cells exposed to H were fixed while still within the hypoxic environment), visually inspected to ensure that the monolayers remained intact, and washed twice with HBSS containing 0.5% bovine serum albumin (HBSS/A). Monolayers were then exposed to 10^5 cpm of ^125I-labelled anti-P-selectin antibody (WAPS 12.2) in the presence of 200 μg/mL of either unlabelled blocking antibody (WAPS 12.2) or nonblocking anti-P-selectin IgG of the same isotype (anti-GMP-140, AC1.2 clone, Becton-Dickinson, San Jose, Calif.) (20,21). After binding for 1 hour at 37° C., monolayers were washed 4 times with HBSS/A, and bound antibody was eluted with 1% triton X-100 in PBS (200 μL/well) and counted. […]

ECs = test: Protein synthesis: 35S-methionine/cysteine in trichloroacetic acid-precipitable material; assay type: cell-based; conditions: Homo sapiens; 10 μg/mL, 4 hrs
Description: (§2) Measurement of Weibel-Palade body exocytosis: ECs were plated into 24 well plates, rinsed 3 times with Hank's balanced salt solution, and then exposed to hypoxia or to normoxia for the indicated durations. For experiments in which vWF was measured, cells were maintained in serum-free medium. All other EC experiments were performed in the EC growth medium described above. […] EC P-selectin expression was determined by measuring the specific binding of a murine monoclonal anti-human P-selectin antibody (WAPS 12.2 clone, Endogen, Cambridge, Mass.; this is an IgGl which recognizes a calcium sensitive epitope and blocks P-selectin dependent neutrophil adhesion. Antibody was radiolabelled with ^125I by the lactoperoxidase method (19) using Enzymobeads (Bio-Rad, Hercules, Calif.), stored at 4° C. and used within one week of labelling. Binding assays were performed on HUVECs plated on 96 well plates, in which fresh M199 with 0.1% bovine serum albumin (Sigma, St. Louis, Mo.) was added immediately prior to each experiment. […] After binding for 1 hour at 37° C., monolayers were washed 4 times with HBSS/A, and bound antibody was eluted with 1% triton X-100 in PBS (200 μL/well) and counted. […] Following 4 hours of normoxic exposure, trichloroacetic acid-precipitable material was collected and counted.

P-selectin [4] = test: EC P-selectin expression by specific binding of 125I anti-P-selectin antibody; assay type: cell-based, human; conditions: cycloheximide 10 μg/mL given at onset of H, 4 hour time point
Description: as §2

SMILES	vWF release [1] [mU/mL]	PS expression in calcium-free medium (P-selectin [2]; ECs in calcium-free medium)	decrease of surface PS expression vs controls (P-selectin [2]; hypoxia 4 hours, SIN-1 0.1 mM, 8-Bromo-cGMP 10 nM) [%]	decrease of HL60 binding to hypoxic HUVECs vs controls (hypoxic HUVECs) [%]	hypoxia-increased intracellular calcium concentration [Cai] [3]	decrease of hypoxia-induced vWF release (Human umbilical vein ECs) [%]	inhibition at 10 µg/mL (ECs) [%]	hypoxia-induced endothelial P-selectin expression (P-selectin [4])
Nc1nc2c(nc(Br)n2[C@@H]2O[C@@H]3COP(=O)(O)O[C@H]3[C@H]2O)c(=O)[nH]1 [cGMP, 8-Bromo-cGMP]	9.7±0.2	Neither SIN-1 nor cGMP could further reduce PS expression	48	86	could be blocked	–	–	–
C[C@@H]1C[C@@H]([C@H](O)CC2CC(=O)NC(=O)C2)C(=O)[C@@H](C)C1 [cycloheximide]	–	–	–	–	–	12.5	> 85	hypoxia still increased endothelial P-selectin expression, albeit at reduced levels

Source: patent publication US8128963B2, “Methods for treating ischemic disorders using carbon monoxide” (The Trustees of Columbia University in the City Of New York, priority 1999, dated 2012)
